From article PMC2714474, “Extreme variability in the formation of chlorpyrifos oxon (CPO) in patients poisoned by chlorpyrifos (CPF)” (Biochemical Pharmacology, 2009)

How the values were obtained:
bovine serum albumin [1] = settings: pH 7.4 and 37 °C, cited from earlier work
BChE = settings: cited from earlier work
[2] = system: human red blood cell AChE; parameters: method as in PMID 15181665; settings: cited from earlier work
[3] = Plasma CPO concentration in CPF-poisoned patients (enzyme-based assay with horse BChE); settings: median (IQR)
Protocol: (§2) Serial blood samples stem from patients with acute chlorpyrifos poisoning who were enrolled in two randomised controlled studies (RCT1: ISRCTN02920054 and RCT2: ISRCTN55264358). The studies were performed in Sri Lankan hospitals in Anuradhapura and Polonnaruwa aimed at evaluating the efficacy of oral superactivated charcoal (RCT 1) or pralidoxime (RCT 2) in symptomatic organophosphorus pesticide poisoning. Additional patients were recruited in a prospective cohort study in Nuwara Eliya that was assessing changes in neuromuscular junctional function in organophosphorus pesticide poisoning. […] Treatment consisted of fluid resuscitation and atropine as described [15] and pralidoxime chloride 1 g every 6 for 48 h (RCT1 and Nuwara Eliya cohort), although there was no strict adherence to this regimen. Patients in RCT2 were randomised to receive pralidoxime (2 g pralidoxime chloride loading dose over 20 min, then 0.5 g/h until a maximum of 7 days) or an equal volume of normal saline in addition to the supportive therapy mentioned above. The blood samples were collected between 25 May 2004 and 18 October 2006.
(§3) Blood samples were collected into tubes containing EDTA prior to pralidoxime, then at 1, 4, 12, and 24 h after administration, then once daily until discharge or death. A 0.2 mL blood sample was diluted at the bedside immediately after collection with 4 mL of ice-cold saline and frozen to −23 °C until analysis of AChE activity. The remaining sample was promptly centrifuged and the aspirated plasma frozen at −23 °C until analysis of BChE activity, inhibitory activity, and the concentration of CPF and CPO [15].
CPO was determined by an enzyme-based assay as described recently [9]. In short, CPO was extracted with n-pentane and the reconstituted residue titrated with purified horse BChE, allowing an LOQ of 0.5 nM. The data were corrected for 83% recovery of CPO from plasma [9].

[4] = Ratio CPO/CPF in plasma of CPF-poisoned patients; type: in vivo, human
Source text: Data were excluded when CPF and/or CPO were below the LOQs or when the time of ingestion or blood sampling was ambiguous. […] In these cases significant post-sampling reactions had to be suspected.

RBC-AChE = target: T1, RBC-AChE (Homo sapiens, UniProt P22303); assay: Inhibitory activity of patient plasma towards RBC-AChE of a healthy donor; type: biochemical; settings: EDTA-based plasma, absence of pralidoxime
T1 construct: washed red blood cells from a healthy donor; from tissue; host or cells: haemolysate of washed red blood cells from a healthy donor
Protocol: (§1) Laboratory analyses were conducted in Munich, Germany. AChE activity was determined in native RBCs (AChE in vivo) and after reactivation with supra-therapeutic obidoxime (AChE in vitro) to estimate the reactivatable fraction. These assays were performed using a modified Ellman assay as described. BChE activity and inhibitory activity of plasma were assessed as reported. In short, inhibitory activity of patient plasma was tested by incubating 3 volumes of hemolysate (3 g Hb/100 mL 0.1 M phosphate buffer, pH 7.4; washed red blood cells from a healthy donor) with 1 volume of patient plasma at 37 °C for 60 min.

[5] = system: human red blood cell AChE; assay: Inhibition kinetics of human red blood cell AChE by CPO; type: biochemical; settings: 11.3 nM AChE, 20 nM CPO
Source text: The basis for the calculation of free CPO is the equation given below: [E]/[EP+EPOx]=kr/ki×[P]×(1+KD/[Ox]) E = active enzyme; EP = phosphorylated, but unaged enzyme; EPOx = complex of oxime and phosphorylated, but unaged enzyme; [EP + EPOx] is the reactivatable enzyme = AChE in vitro–AChE in vivo; kr is the first-order reactivation rate constant; KD is the dissociation constant of the complex EPOx; ki is the second-order inhibition rate constant; [P] is the oxon concentration; [Ox] is the oxime concentration.
The fraction of active test AChE upon incubation with known amounts of CPO in plasma samples was calculated discretely in 1-min increments using the following equation: E=E0−ki×(E−EP)×0.15×(CPO0−EP), with E0 and CPO0 being the AChE and total CPO concentration at t = 0 (the factor 0.15 corrects for the fraction not bound reversibly to albumin).

bovine serum albumin [6] = assay: Hydrolysis / inactivation of CPO by serum albumin; type: biochemical; settings: 20 nM CPO, 1% albumin in inhibition assay, assuming human serum albumin has similar constants as BSA
[7] = system: human diethylphosphoryl-AChE; settings: human red blood cells in vitro, cited from earlier work
[8] = target: T2, RBC acetylcholinesterase (AChE; EC 3.1.1.7) (Homo sapiens, UniProt P22303); assay: RBC-AChE activity in CPF-poisoned patients (modified Ellman assay); type: in vivo
T2 construct: from tissue; host or cells: red blood cells (diluted whole blood) of chlorpyrifos-poisoned patients
Protocol: as §1

[9] = target: butyrylcholinesterase (BChE; EC 3.1.1.8) (Homo sapiens, UniProt P06276); assay: BChE activity in plasma of CPF-poisoned patients; type: in vivo; settings: one patient, 70 min after CPF ingestion
Protocol: as §1

[10] = Plasma CPF concentration in CPF-poisoned patients (HPLC)
Protocol: as §2, §3
CPF was determined by reversed phase HPLC with detection at 288 nm. Specifically, 0.5 mL plasma was mixed with 10 μL of 500 μM fenitrothion as internal standard to control the extraction yield. The plasma was extracted twice with 1 mL n-hexane for 1 min and residual lipoproteins in the combined hexane phases were precipitated with 50 μL 1 M perchloric acid, followed by centrifugation (10.000 rpm for 1 min). The hexane phase was transferred in a borosilica vial and 10 μL of DMSO was added as keeper. Hexane was evaporated at approximately 40 °C for 30 min in a Speed-Vac-Concentrator. The residue was dissolved in 90 μL of methanol:water (70/30, v/v) and 50 μL were applied to LiChrosphere 100 RP-18, 5 μm, 125 mm × 4 mm (E. Merck, Darmstadt, Germany) and eluted at a flow rate of 1 mL/min by gradient elution. […] Typically, fenitrothion was eluted after 3.3 min and chlorpyrifos after 11.5 min. The lower limit of quantification (LOQ) was 0.1 μM in plasma.

CYP2B6 = settings: read-out: Km of CPF desulfuration; human hepatic CYP2B6; cited from earlier work
CYP3A4 = settings: read-out: Km of CPF desulfuration; human hepatic CYP3A4; cited from earlier work

T2 sequence (P22303 32-617 isoform P22303-2 limits assumed): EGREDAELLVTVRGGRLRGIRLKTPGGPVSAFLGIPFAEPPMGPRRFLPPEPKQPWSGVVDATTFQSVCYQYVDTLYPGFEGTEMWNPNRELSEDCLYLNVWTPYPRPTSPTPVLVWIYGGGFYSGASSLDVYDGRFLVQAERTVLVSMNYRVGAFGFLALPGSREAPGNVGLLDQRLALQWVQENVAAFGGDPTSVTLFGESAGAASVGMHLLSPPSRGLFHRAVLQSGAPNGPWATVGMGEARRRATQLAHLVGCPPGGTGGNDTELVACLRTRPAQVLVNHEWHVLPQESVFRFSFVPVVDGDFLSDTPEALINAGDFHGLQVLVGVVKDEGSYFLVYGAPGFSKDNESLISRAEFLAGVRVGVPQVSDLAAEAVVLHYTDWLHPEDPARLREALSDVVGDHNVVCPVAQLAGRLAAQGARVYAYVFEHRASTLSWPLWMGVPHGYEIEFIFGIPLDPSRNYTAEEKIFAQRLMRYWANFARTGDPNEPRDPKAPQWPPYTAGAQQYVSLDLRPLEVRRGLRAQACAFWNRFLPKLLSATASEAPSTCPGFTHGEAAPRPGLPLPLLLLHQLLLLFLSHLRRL
T1 sequence (P22303 32-617 isoform P22303-2 limits assumed): as above
Sequence of butyrylcholinesterase (BChE; EC 3.1.1.8) (P06276 29-602): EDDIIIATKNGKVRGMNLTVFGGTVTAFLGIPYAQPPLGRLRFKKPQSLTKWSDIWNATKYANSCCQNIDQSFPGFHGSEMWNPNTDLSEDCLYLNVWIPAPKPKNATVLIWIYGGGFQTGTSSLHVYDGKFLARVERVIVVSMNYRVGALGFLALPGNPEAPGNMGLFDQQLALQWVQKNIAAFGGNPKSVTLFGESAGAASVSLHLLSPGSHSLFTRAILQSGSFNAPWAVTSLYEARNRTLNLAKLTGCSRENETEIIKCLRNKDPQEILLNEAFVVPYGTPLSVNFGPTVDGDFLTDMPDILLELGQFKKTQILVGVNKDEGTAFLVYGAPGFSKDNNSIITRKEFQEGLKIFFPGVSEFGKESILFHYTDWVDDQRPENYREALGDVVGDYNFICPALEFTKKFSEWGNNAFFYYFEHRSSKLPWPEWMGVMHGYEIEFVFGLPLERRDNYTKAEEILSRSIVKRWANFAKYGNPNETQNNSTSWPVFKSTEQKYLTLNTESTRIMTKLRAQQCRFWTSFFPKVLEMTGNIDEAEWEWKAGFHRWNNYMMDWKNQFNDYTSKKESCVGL

## Chlorpyrifos oxon [CPO]
Bovine serum albumin [1]
  Vmax of CPO 'hydrolysis' by bovine serum albumin: 0.9 nmol/min/mg protein
Bovine serum albumin [1]; read-out: Km of CPO 'hydrolysis' by bovine serum albumin
  Km: 400 µM
BChE
  reaction faster with BChE than with AChE: more than 2 orders of magnitude
[2]
  ki, second-order inhibition rate constant: 6e+06 M⁻¹ min⁻¹
[3]; 0–4 h post CPF poisoning, n=52
  CPO plasma concentration: 10.1 (4.5–22.2) nM
[3]; 4–8 h post CPF poisoning, n=67
  CPO plasma concentration: 11.9 (6.5–21.5) nM
[3]; 8–16 h post CPF poisoning, n=59
  CPO plasma concentration: 12.7 (5.5–22.5) nM
[3]; 16–24 h post CPF poisoning, n=30
  CPO plasma concentration: 9.6 (4.1–30.1) nM
[3]; 24–36 h post CPF poisoning, n=45
  CPO plasma concentration: 14.1 (4.7–34.5) nM
[3]; 36–60 h post CPF poisoning, n=41
  CPO plasma concentration: 16.7 (3.4–68.4) nM
[3]; 60–84 h post CPF poisoning, n=27
  CPO plasma concentration: 22.7 (2.2–59.9) nM
[3]; 84–120 h post CPF poisoning, n=28
  CPO plasma concentration: 7.1 (4.2–40.2) nM
[4]; 0–4 h post poisoning, median (IQR) of individual sample ratios
  CPO/CPF × 1000: 4.2 (1.9–9.5)
[4]; 4–8 h post poisoning, median (IQR)
  CPO/CPF × 1000: 6.8 (4.3–14.0)
[4]; 8–16 h post poisoning, median (IQR)
  CPO/CPF × 1000: 17.5 (9.2–31.6)
[4]; 16–24 h post poisoning, median (IQR)
  CPO/CPF × 1000: 14.2 (10.5–42.6)
[4]; 24–36 h post poisoning, median (IQR)
  CPO/CPF × 1000: 28.6 (11.3–44.4)
[4]; 24–120 h, steady-state, high individuals
  ratio CPO/CPF, other individuals: > 0.05
[4]; 24–120 h, steady-state, low individuals
  ratio CPO/CPF, some individuals: below 0.01
[4]; 36–60 h post poisoning, median (IQR)
  CPO/CPF × 1000: 29.2 (14.4–70.7)
[4]; 60–84 h post poisoning, median (IQR)
  CPO/CPF × 1000: 37.3 (12.7–65.3)
[4]; 84–120 h post poisoning, median (IQR)
  CPO/CPF × 1000: 25.0 (15.4–53.6)
[4]; between 30 and 72 h
  ratio of CPO/CPF (apparent steady-state mean): 0.03
[4]; first few hours after ingestion
  ratio of CPO/CPF (mean): 0.005
[4]; period between 0 and 4 h after ingestion
  ratio of CPO/CPF: less than 0.005
[4]; period between 24 and 120 h
  ratio of CPO/CPF on average: ~0.03
RBC-AChE
  fraction of CPO capable of inhibiting AChE: roughly 2/3
[5]
  (initial) AChE inhibition rate: 1.35 nM/min
Bovine serum albumin [6]
  rate of CPO inactivation by albumin: 0.45 nM/min

## C[n+]1ccccc1/C=N/O [pralidoxime]
[7]
  kr, first-order reactivation rate constant: 0.3 min⁻¹
[7]; read-out: KD, dissociation constant of the complex EPOx
  Kd: 330 µM
[8]; patient A, continuous pralidoxime infusion given for 5 days
  AChE reactivation (fraction of active enzyme from reactivatable pool): ~90%

## CCOP(=O)(OCC)Oc1cc(C)nc(C(C)C)n1 [diazoxon, reference compound]
BChE
  reactivity in inhibiting BChE, times less than CPO: 20 times

## CCOP(=S)(OCC)Oc1nc(Cl)c(Cl)cc1Cl [CPF, Chlorpyrifos]
[9]
  BChE activity, of normal: less than 2%
[10]; 0–4 h post poisoning, median (interquartile range), n=52
  CPF plasma concentration: 2.54 (1.6–4.7) μM
[10]; 4–8 h post poisoning, median (IQR), n=67
  CPF plasma concentration: 1.65 (0.7–3.2) μM
[10]; 8–16 h post poisoning, median (IQR), n=59
  CPF plasma concentration: 0.70 (0.4–1.2) μM
[10]; 16–24 h post poisoning, median (IQR), n=30
  CPF plasma concentration: 0.44 (0.3–1.5) μM
[10]; 24–36 h post poisoning, median (IQR), n=45
  CPF plasma concentration: 0.47 (0.3–1.1) μM
[10]; 36–60 h post poisoning, median (IQR), n=41
  CPF plasma concentration: 0.66 (0.2–1.0) μM
[10]; 60–84 h post poisoning, median (IQR), n=27
  CPF plasma concentration: 0.46 (0.2–0.8) μM
[10]; 84–120 h post poisoning, median (IQR), n=28
  CPF plasma concentration: 0.39 (0.2–0.7) μM
CYP2B6
  Km: ~1000 nM
[8]; one patient, 70 min after CPF ingestion
  AChE activity, of normal: < 10%
CYP3A4
  Km: ~30 µM
